Laboratory results published in article PMC4585737, “Lipoproteins/peptides are sepsis-inducing toxins from bacteria that can be neutralized by synthetic anti-endotoxin peptides” (Scientific Reports, 2015).
Entries after “also recorded” stand apart in the source; their conditions may differ. Where no end group is shown, it is not given here. [ ]: non-standard residue; d: D form.

Assays:
[1] = system: human MNCs; settings: cited from earlier work
Source text: In this section, we first present in vitro data on the production of pro-inflammatory cytokines by human cells in response to LP or LTA from different origin and its neutralization by SALP. Then, we used a mouse model of acute toxemia to characterize the in vivo expression of those cytokines and to study if SALP can protect animals against lethal LP-induced sepsis.

[2] = system: human TLR2; assay: IL-8 production in HEK293 cells transfected with TLR2; format: cell-based; settings: HEK293, 18 hours stimulation, relatively high LP concentrations; ELISA
Method: For HEK cell activation, human IL-8 was determined by sandwich enzyme-linked immunosorbent assay using IL-8 cytoset from BIOSOURCE (Life Technologies GmbH, Darmstadt Germany) exactly according to the manufacturer’s protocol. For transient transfection, HEK293 cells were plated at a density of 2.5 × 10^4/well in 96-well plates in Dulbecco’s modified Eagle’s medium (PAA, Pasching, Germany). The following day, cells were transfected using Lipofectamine (Life technologies) according to the manufacturer’s protocol. Expression plasmid containing the FLAG-tagged version of human TLR2 was a kind gift from P. Nelson, Seattle, WA and subcloned into pREP9 (Life Technologies). TLR2 plasmid was used at 100 ng/transfection. After 24 hours of transfection, cells were washed and stimulated for 18 hours with indicated compounds and positive controls. Finally, supernatants were collected and the interleukin-8 content was quantified using a commercial ELISA (Life technologies).
Data shown are the mean ± S.D. of triplicate samples of one experiment and representative of two independent experiments.

[3] = system: TLR4; assay: IL-8 production in HEK cells transfected with a TLR4 expression vector; format: cell-based; settings: for IL-8 in TLR4-transfected cells: HEK cells, ELISA
[4] = system: human mononuclear cells; assay: TNFα production in human mononuclear cells (MNC) stimulated by LP, LTA or PGN, and its inhibition by SALP; format: cell-based; settings: for TNFα when adding 100 ng/ml of LP / concentration necessary to induce an observable TNFα secretion / stimulation of MNC (TNFα induction) compared with LPS: human MNC; for stimulation of MNC (TNFα induction) compared with LPS: 4 h, ELISA
Method: The stimulation of MNC was performed as described previously. Briefly, MNC were isolated from heparinized blood of healthy donors by the Hypaque-Ficoll density gradient method. The cell number was equilibrated at 5 × 10^6 cells/ml RPMI 1640 containing 2 mM L-glutamine, 100 U/ml penicillin and 100 μg/ml streptomycin. For stimulation, 200 μl/well MNC were transferred into 96-well culture plates. The stimuli were serially diluted in RPMI 1640 and added to the cultures at 20 μl per well. The cultures were incubated for 4 h at 37 °C under 5% CO2. Cell-free supernatants were collected after centrifugation of the culture plates for 10 min at 400 × g and stored at −20 °C until the determination of the cytokine content. Immunological determination of TNFα in the cell supernatant was performed in a sandwich-ELISA as described earlier (OptEIA; BD, Heidelberg, Germany). TNFα was determined and measured following manufacturer’s instructions and results are the average of two assays.
LP preparations were pre-warmed for 30 min at 37 °C, and added to the cultures at 20 μl per well. In inhibition experiments, different SALP were added directly after LPS/LP/LTA administration.
Since the data of the stimulation of human MNC by the bacterial and synthetic LP was taken over a time period of more than 6 years, the TNFα production lead to considerable variations due to different batches of LP and of Pep19-2.5, and in particular due to variations resulting from blood samples of different donors. Because the main emphasis laid here is the efficiency of the peptide to inhibit the cytokine production, most figures describe the inhibition efficieny of the peptide in %, by presenting the means ± SEM of at least 3 independent experiments. The absolute values of the cytokine production, where of note, is given separately in the text.

[5] = active LP adopt non-lamellar aggregates, inactive a lamellar aggregate structure; cited from earlier work
Source text: Similar arguments regarding the bioactive conical conformation of ...

[6] = system: Balb/C mice; assay: Lethal toxemia in galactosamine-sensitized mice; format: in vivo, mouse; settings: for physical activity / survival score of each animal: n = 3, one score per animal
Method: (§1) Seven-week-old female SPF-free Balb/C mice of 20 g of body weight, approximately, were purchased from Harlan Spain (Harlan Interfauna Iberica S.A., Barcelona, Spain) and randomly distributed in experimental groups (at least 4 animals per group except for the determination of lethal dose (n = 3)). Sample size was calculated based on previous results with the same animal model. Animals were housed in individually ventilated cages (5 mice per cage) bedded with hardwood bedding. Mice were provided ad libitum access to feed and water and lighting was adjusted to a 14-hour light/10-hour dark cycle. During the experiments, the condition of the animals was monitored daily every 4 hours and animals displaying persistent motor ataxia and hunched posture were euthanized.
To determine the lethal dose of FSL-1 in mice, the method of Galanos and collaborators[48] was followed with some modifications. Briefly, animals were intraperitoneally inoculated with increasing amounts of FSL-1 (50 ng, 500 ng, 5 μg and 50 μg) supplemented with 18 mg of D-galactosamine in a final volume of 200 μl of pyrogen-free saline. Galactosamine is known to sensitize mice to pro-inflammatory compounds such as LPS, thus making it possible to use lower amounts of the stimulatory drug[46]. The ability of Aspidasept® to protect mice from FSL-1 dependent lethal toxemia was assessed by co-administering FSL-1 (4 μg/mouse) with D-galactosamine (18 mg/mouse) intraperitoneally.
Results were globally analyzed by means of a Kaplan-Meier survival analysis (SPSS 15.0). When the survival plots were parallel, the data were compared by the log-rank test, whereas the Breslow-Gehan-Wilcoxon test was applied when the plots intersected.

[7] = system: Balb/C mice; assay: Serum cytokine response in mice after intraperitoneal inoculation; format: in vivo, mouse; settings: 40 μg FSL-1 i.p.
Method: as §1
To study if FSL-1 had pro-inflammatory cytokine-inducing activity, animals were intraperitoneally inoculated with 40 μg of FSL-1 resuspended in 200 μl of pyrogen-free saline. Blood samples were taken both at 1.5 h or 4 h after FSL-1 challenge to measure TNFα and IL-6 levels. For this purpose, mice were anesthetised, a blood sample was obtained by the retroorbital plexus and serum cytokine levels were measured using Quantikine Immunoassays kits (R&D systems, Minneapolis, USA) following manufacturer’s instructions. Differences between groups were statistically analyzed using the Mann-Whitney U test.
To evaluate the ability of Aspidasept® to neutralize the FSL-1 induced pro-inflammatory cytokines, a group of animals received by the intraperitoneal route first 40 μg of FSL-1 and then 400 μg of the drug resuspended in 100 μl of pyrogen-free saline. This second injection was administered immediately after FSL-1 challenge at a different site of the peritoneum. TNFα and IL-6 levels were measured (see above) at 1.5 h or 4 h after challenge, respectively, coinciding with the peak of cytokine secretion, as determined in preliminary experiments.

[8] = system: rats; settings: ref Hübschle et al. 39; cited from earlier work
Source text: (§2) Whereas for Gram-negative species the major inflammation- and sepsis-inducing compounds are endotoxins, the responsible compounds for endotoxin-free organisms (Gram-positive bacteria, fungi, mycoplasma, some Gram-negative bacteria) are poorly described or unknown. From the present data, however, it appears to be that LP are the decisive compounds for inflammation- a ...

[9] = system: guinea pigs; settings: ref Greis et al. 40; cited from earlier work
Source text: as §2

[10] = system: macrophages; settings: LP 19 KDa from M. tuberculosis; cited from earlier work
Source text: When adding the polycationic polymyxin B (PMB), a traditional AMP[43] to the shortened 19 KDa LP, a similar lack of interaction was observed.

[11] = biological target: T1, FSL-1 (fibroblast-stimulating lipopeptide) (Mycoplasma salivarium); assay: ITC; lipopeptide 0.05 mM dispersion in the cell (1.5 ml); peptide 1 mM titrated in 3 μl aliquots every 5 min; 37 °C; MCS calorimeter; settings: both partners purified
T1 construct: the first C stands for the lipidated cysteine; Shortened analogue of the 44-kDa lipoprotein LP44 of Mycoplasma salivarium, its N-terminal part; stood in the assays as an aggregate dispersion of the lipopeptide; also called LP FSL-1; source: synthetic lipopeptide, EMC microcollections GmbH (Tübingen)
T1 peptide: [Pam2Cys]GDPKHPKSF

GRRYKKFRWKFKGRWFWFG [Pep19–8, synthetic anti-LPS peptide (SALP)]
inhibition efficiency in the biological experiments [1]: low

Pam3Cys-SQEPAAPAAEATPAG [LP H8, synthetic triacyl LP, shortened analogue of LP blp NG from Neisseria gonorrhoeae]
IL-8 secreting activity in TLR-2 transfected cells [2]: considerable IL-8 secreting activity
IL-8 in TLR4-transfected cells [3]: nearly no IL-8 signal
TNFα when adding 100 ng/ml of LP ([4]; data not shown): no detectable amounts
concentration necessary to induce an observable TNFα secretion ([4]; data not shown): 10 µg/mL

Pam2CSK4
biological activity [5]: biologically active

Pam2Cys-GDPKHPKSF [FSL-1, fibroblast-stimulating lipopeptide, synthetic diacyl LP, shortened analogue of the 44-kDa LP LP44 of Mycoplasma salivarium]
physical activity / survival score of each animal ([6]; 500 ng FSL-1 i.p. + D-galactosamine 18 mg/mouse, 24 hours): † † †
physical activity / survival score of each animal ([6]; 500 ng FSL-1 i.p. + D-galactosamine 18 mg/mouse, 48 hours): † † †
time to symptoms of sepsis (reduced motor activity, lethargy, shivering, piloerection) ([6]; 4 μg FSL-1 i.p. + D-galactosamine 18 mg/mouse): ≤ 120 min
physical activity / survival score of each animal ([6]; 5 μg FSL-1 i.p. + D-galactosamine 18 mg/mouse, 24 hours): † † †
physical activity / survival score of each animal ([6]; 5 μg FSL-1 i.p. + D-galactosamine 18 mg/mouse, 48 hours): † † †
physical activity / survival score of each animal ([6]; 50 μg FSL-1 i.p. + D-galactosamine 18 mg/mouse, 24 hours): † † †
physical activity / survival score of each animal ([6]; 50 μg FSL-1 i.p. + D-galactosamine 18 mg/mouse, 48 hours): † † †
amount necessary to kill 100% of the animals in 48 h (LD100) ([6]; galactosamine-sensitized Balb/C mice, i.p., n = 3 per dose): 500 ng/mouse
LD100 relative to the equivalent LD100 of Salmonella minnesota LPS ([6]; identical experimental conditions, LPS value from ref 24): 10 times higher
time of peak serum IL-6 level ([7]; data not shown): 4 h
time of peak serum TNFα level ([7]; data not shown): 90 min
serum TNFα response ([7]; n = 4, 1.5 h): potent
serum IL-6 response ([7]; n = 4, 4 h): potent
in vivo biological activity [8]: High
in vivo biological activity [9]: High
stimulation of MNC (TNFα induction) compared with LPS [4]: potency similar to that of LPS; also recorded: similarly active

Pam3Cys-NNSGKDGNTSANSAD [LP OspC, synthetic triacyl LP, shortened analogue of OspC from Borrelia burgdorferi]
IL-8 secreting activity in TLR-2 transfected cells [2]: considerable IL-8 secreting activity
IL-8 in TLR4-transfected cells [3]: nearly no IL-8 signal

Pam2Cys-GNNDESNISFKEK [MALP-2, reference compound]
stimulation of MNC (TNFα induction) compared with LPS [4]: similarly active

Pam3Cys-SSSNNDAAGNGAAQT [LP P6, synthetic triacyl LP, shortened analogue of protein P6 from Haemophilus influenzae]
IL-8 secreting activity in TLR-2 transfected cells [2]: considerable IL-8 secreting activity
IL-8 in TLR4-transfected cells at high concentration ([3]; 10 μg/ml): significant amounts of IL-8
TNFα when adding 100 ng/ml of LP ([4]; data not shown): no detectable amounts
concentration necessary to induce an observable TNFα secretion ([4]; data not shown): 10 µg/mL

GCRRFKKFKKWRYRGRFWFWCFG [Pep19–12]
inhibition of Pam3CSK4-induced cytokine (TNFα) production ([4]; stimulus Pam3CSK4 1000, 100, 10 ng/ml, [LP]:[Pep] up to 1:100 weight%): no or only a small inhibition

GKKYRRFRWKFKGKWFWFG [Pep19–4, synthetic anti-LPS peptide (SALP)]
inhibition efficiency in the biological experiments [1]: moderate

polymyxin B
inhibition of the stimulation of macrophages by the shortened 19 KDa LP [10]: lack of biological inhibition

Pam3Cys-KQNVSSLDEKNSVSV [LP OspA, synthetic triacyl LP, shortened analogue of OspA from Borrelia burgdorferi]
IL-8 secreting activity in TLR-2 transfected cells [2]: considerable IL-8 secreting activity
IL-8 in TLR4-transfected cells [3]: nearly no IL-8 signal

Pam3Cys-SKKKK [Pam3CSK4, reference compound]
IL-8 secreting activity in TLR-2 transfected cells [2]: considerable IL-8 secreting activity
activation of MNC at 1 ng/ml ([4]; 1 ng/ml, data not shown): not
activation of MNC at 10 ng/ml ([4]; 10 ng/ml, data not shown): some activation takes place
stimulation of MNC (TNFα induction) compared with LPS [4]: markedly lower level than LPS
biological activity [5]: biologically active

B1: Pep19-2.5 (Aspidasept^®) (peptide)
peptide: GCKKYRRFRWKFKGKFWFWG-NH2
notes: designed synthetic anti-LPS peptide, 20-mer; purity >95% (HPLC, MALDI-TOF); also called SALP; synthetic anti-LPS peptide; source: synthetic peptide; batches produced by BACHEM (Bubendorf, Switzerland)
binding result [11]: binds
